From ChEMBL document CHEMBL1128134, “Characterization of a continuous fluorogenic assay for calpain I. Kinetic evaluation of peptide aldehydes, halomethyl ketones and (acyloxy)methyl ketones as inhibitors of the enzyme” (Bioorg Med Chem Lett, 1995)
Peptide text beside a SMILES is read from it. * marks the point of attachment. Cbz = O=C(OCc1ccccc1)*

T1: Calpain-1 catalytic subunit (Homo sapiens) (UniProt P07384)
T1 sequence (whole entry): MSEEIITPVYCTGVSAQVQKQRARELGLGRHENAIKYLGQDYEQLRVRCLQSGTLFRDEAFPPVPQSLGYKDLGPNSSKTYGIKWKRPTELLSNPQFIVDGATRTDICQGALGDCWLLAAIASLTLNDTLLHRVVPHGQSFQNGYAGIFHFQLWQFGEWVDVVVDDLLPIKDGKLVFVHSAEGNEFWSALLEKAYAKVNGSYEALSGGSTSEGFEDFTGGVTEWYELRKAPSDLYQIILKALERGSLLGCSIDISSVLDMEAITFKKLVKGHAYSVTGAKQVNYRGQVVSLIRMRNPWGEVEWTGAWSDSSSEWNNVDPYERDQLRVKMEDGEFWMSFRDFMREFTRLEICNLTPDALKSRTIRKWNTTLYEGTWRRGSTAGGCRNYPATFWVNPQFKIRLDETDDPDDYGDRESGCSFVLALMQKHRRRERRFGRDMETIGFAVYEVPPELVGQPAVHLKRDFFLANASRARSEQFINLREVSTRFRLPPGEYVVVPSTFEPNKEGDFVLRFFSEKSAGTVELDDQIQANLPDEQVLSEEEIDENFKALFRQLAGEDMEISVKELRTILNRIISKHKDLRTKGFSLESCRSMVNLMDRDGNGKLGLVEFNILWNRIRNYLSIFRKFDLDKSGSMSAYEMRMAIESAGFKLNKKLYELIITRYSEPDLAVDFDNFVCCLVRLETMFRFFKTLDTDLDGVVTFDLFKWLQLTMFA


Assays:
[1] = target: T1, Calpain-1 catalytic subunit (Homo sapiens); assay: Rate of catalysis as a measure of ability to serve as substrate of Calpain
[2] = Ratio of rate of catalysis to Michaelis-Menten constant was determined
Calpain 1 (Homo sapiens) = Calpain 1 (Homo sapiens) (UniProt P04632+P07384); assay: Apparent second order rate constant for inhibition of calpain-1 by fluorogenic assay.; assay type: protein-complex assay
[3] = target: T1, Calpain-1 catalytic subunit (Homo sapiens); assay: Compound was tested for apparent second order rate constant for inhibition of calpain I in an endpoint (non-continuous) calpain assay
Calpain 1 = Calpain 1 (Homo sapiens, UniProt P07384); assay: Inhibition of Calpain 1 by [3H]acetyl-casein assay; assay type: protein-complex assay
[4] = substrate: CC(C)C[C@H](NC(=O)OCc1ccccc1)C(=O)N[C@@H](CCCN=C(N)N)C(=O)Nc1ccc2c(C(F)(F)F)cc(=O)oc2c1; assay: (§1) Michaelis-Menten kinetics value as a measure of ability to serve as substrate of Calpain
[5] = substrate: COc1ccc2cccc(NC(=O)[C@@H](CCCN=C(N)N)NC(=O)[C@H](CC(C)C)NC(=O)[C@@H](NC(=O)OCc3ccccc3)C(C)C)c2c1; assay: as §1
[6] = substrate: COc1ccc2cccc(NC(=O)[C@H](CCCN=C(N)N)NC(=O)[C@H](CC(C)C)NC(=O)OCc3ccccc3)c2c1; assay: as §1
[7] = substrate: Cc1cc(=O)oc2cc(NC(=O)[C@@H](CCCCN)NC(=O)[C@H](CC(C)C)NC(=O)[C@@H](NC(=O)OC(C)(C)C)C(C)C)ccc12; assay: as §1
[8] = substrate: Cc1cc(=O)oc2cc(NC(=O)[C@@H](Cc3ccc(O)cc3)NC(=O)[C@H](NC(=O)[C@H](CC(C)C)NC(=O)[C@H](CC(C)C)NC(=O)CCC(=O)O)C(C)C)ccc12; assay: as §1
[9] = substrate: Cc1cc(=O)oc2cc(NC(=O)[C@H](CCCN=C(N)N)NC(=O)[C@H](CC(C)C)NC(=O)OCc3ccccc3)ccc12; assay: as §1
[10] = substrate: Cc1cc(=O)oc2cc(NC(=O)[C@H](NC(=O)[C@H](CC(C)C)NC(=O)[C@H](CC(C)C)NC(=O)CCC(=O)O)C(C)C)ccc12; assay: as §1

Calpain 1, sequence (P04632 whole entry, one chain of several): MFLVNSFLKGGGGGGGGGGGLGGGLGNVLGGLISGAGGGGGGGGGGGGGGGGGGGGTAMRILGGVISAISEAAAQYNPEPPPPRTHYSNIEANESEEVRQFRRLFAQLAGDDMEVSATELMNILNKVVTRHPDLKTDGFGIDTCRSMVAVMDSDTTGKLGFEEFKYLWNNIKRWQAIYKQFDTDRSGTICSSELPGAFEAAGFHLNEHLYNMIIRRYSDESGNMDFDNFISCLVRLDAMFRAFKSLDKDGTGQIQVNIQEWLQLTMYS

| Molecule | k cat [1] [s⁻¹] | Ratio [2] [M⁻¹ s⁻¹] | further results |
| --- | --- | --- | --- |
| CC(C)C[C@H](NC(=O)[C@H]1O[C@@H]1C(=O)O)C(=O)NCCCCN=C(N)N |  |  | k obs / 1 (Calpain 1 (Homo sapiens)): 2500 M⁻¹ s⁻¹; k obs / 1 [3]: 7500 M⁻¹ s⁻¹ |
| CC(C)C[C@H](NC(=O)OCc1ccccc1)C(=O)N[C@@H](CCCN=C(N)N)C(=O)Nc1ccc2c(C(F)(F)F)cc(=O)oc2c1 | 0.07 | 153 |  |
| COc1ccc2cccc(NC(=O)[C@H](CCCN=C(N)N)NC(=O)[C@H](CC(C)C)NC(=O)OCc3ccccc3)c2c1 | 0.52 | 1400 |  |
| CC(C)[C@H](NC(=O)OCc1ccccc1)C(=O)N1CCC[C@H]1C=O (Cbz-Val-Pro-aldehyde) |  |  | IC50 (Calpain 1): > 1000 nM |
| Calpain-1 catalytic subunit (Homo sapiens), P07384 (protein) MSEEIITPVYCTGVSAQVQKQRARELGLGRHENAIKYLGQDYEQLRVRCLQSGTLFRDEAFPPVPQSLGYKDLGPNSSKTYGIKWKRPTELLSNPQFIVDGATRTDICQGALGDCWLLAAIASLTLNDTLLHRVVPHGQSFQNGYAGIFHFQLWQFGEWVDVVVDDLLPIKDGKLVFVHSAEGNEFWSALLEKAYAKVNGSYEALSGGSTSEGFEDFTGGVTEWYELRKAPSDLYQIILKALERGSLLGCSIDISSVLDMEAITFKKLVKGHAYSVTGAKQVNYRGQVVSLIRMRNPWGEVEWTGAWSDSSSEWNNVDPYERDQLRVKMEDGEFWMSFRDFMREFTRLEICNLTPDALKSRTIRKWNTTLYEGTWRRGSTAGGCRNYPATFWVNPQFKIRLDETDDPDDYGDRESGCSFVLALMQKHRRRERRFGRDMETIGFAVYEVPPELVGQPAVHLKRDFFLANASRARSEQFINLREVSTRFRLPPGEYVVVPSTFEPNKEGDFVLRFFSEKSAGTVELDDQIQANLPDEQVLSEEEIDENFKALFRQLAGEDMEISVKELRTILNRIISKHKDLRTKGFSLESCRSMVNLMDRDGNGKLGLVEFNILWNRIRNYLSIFRKFDLDKSGSMSAYEMRMAIESAGFKLNKKLYELIITRYSEPDLAVDFDNFVCCLVRLETMFRFFKTLDTDLDGVVTFDLFKWLQLTMFA |  |  | Km [4]: 460 µM; Km [5]: 100 µM; Km [6]: 370 µM; Km [7]: 5900 µM; Km [8]: 160 µM; Km [9]: 190 µM; Km [10]: 200 µM |

Further lines, with some results ahead:

| k cat [1] [s⁻¹] | Ratio [2] [M⁻¹ s⁻¹] | Molecule | further results |
| --- | --- | --- | --- |
| 0.49 | 83 | Cc1cc(=O)oc2cc(NC(=O)[C@@H](CCCCN)NC(=O)[C@H](CC(C)C)NC(=O)[C@@H](NC(=O)OC(C)(C)C)C(C)C)ccc12 |  |
| 0.02 | 105 | Cc1cc(=O)oc2cc(NC(=O)[C@H](CCCN=C(N)N)NC(=O)[C@H](CC(C)C)NC(=O)OCc3ccccc3)ccc12 |  |
| 0.42 | 262 | Cc1cc(=O)oc2cc(NC(=O)[C@@H](Cc3ccc(O)cc3)NC(=O)[C@H](NC(=O)[C@H](CC(C)C)NC(=O)[C@H](CC(C)C)NC(=O)CCC(=O)O)C(C)C)ccc12 |  |
| 0.29 | 141 | Cc1cc(=O)oc2cc(NC(=O)[C@H](NC(=O)[C@H](CC(C)C)NC(=O)[C@H](CC(C)C)NC(=O)CCC(=O)O)C(C)C)ccc12 |  |
